Reference: US9295670B2, “Methods for treating obstructive sleep apnea” (priority 2011, dated 2016)
Entries after “also recorded” stand apart in the source; their conditions may differ. Marks after values point to notes of the source that are not given here.

Columns and labels:
[1] = tested on: patients with moderate to severe OSA; assay: Randomized, double-blind, placebo-controlled, crossover study with PYD in 12 patients with moderate to severe OSA (Example 1; PSG or PM); format: in vivo, human
Experimental: (§1) A randomized, double-blind, placebo-controlled, crossover study with PYD was undertaken in 12 patients with moderate to severe OSA. PYD was prepared by grinding pyridostigmine bromide pills manufactured by Sunve Pharmaceutical Co., LTD., Shanghai, China and recapsulated into hard shell capsules. PYD bromide at 30 mg, 60 mg, 120 mg, or placebo was orally administered to patients before sleep each night for a total of four continuous nights. Lights went out within 5 min after the administration. Blood was drawn at 0, 0.5, 1, 1.5, 2, 2.5, 3, 4 and 7 hours after the administration, and serum drug concentrations were determined by a LC-MS method after proper pre-treatment of the blood samples. Patients were monitored by either a PSG or a PM throughout the nights.

[2] = Serum drug concentrations after oral PYD bromide in OSA patients (Example 1, LC-MS); format: in vivo, human
Experimental: as §1

[3] = in vivo; cited from earlier work
diagnosed OSA patients = assay: Double-blind, randomized, cross-over, placebo-controlled study of efficacy and safety of PYD in 6 OSA patients (Example 2; PSG, questionnaires); format: in vivo, human; conditions: for Apnea/Hypopnea Index (AHI): 90 mg PYD bromide oral, mean of 6 patients; for Apnea/Hypopnea Index (AHI) / Apnea index (AI) / Hypopnea Index (HI): events per hour; for Apnea/Hypopnea Index (AHI) Reduction (%) / Hypopnea Index (HI) Reduction (%) / Apnea index (AI) Reduction (%) / Apnea/Hypopnea time Reduction (%) / Low Sat O2 Reduction (%) / Snore score Reduction (%): 90 mg vs placebo; for Apnea/Hypopnea time (%): percentage of total sleep time
Experimental: A double-blind, randomized, cross-over, placebo-controlled study was conducted to evaluate the efficacy and safety of PYD in 6 diagnosed OSA patients. The study consists of a one-day acclimatization period followed immediately by a 2-day double-blind treatment period when patients received either 90 mg PYD bromide in hard shell capsules or a matching placebo before sleep with a light snack. All patients were required to maintain in a supine position throughout of the night, as OSA is most severe when patients is on their back. In such a way, the results are expected to be more conservative in judging therapeutic effects of the drug. Lights were turned off within 5 min after the administration of the drug. The patients were monitored by a PSG. Apnea, hypopnea, snoring, blood O2 saturation were monitored, recorded, and scored. Sleep questionnaires were taken everyday after sleep to evaluate the impact on the sleep satisfaction and at evening to evaluate the quality of life during the daytime. Safety of the drug was also monitored and evaluated.

OSA patient = assay: Randomized, double-blind, dose escalating study in one OSA patient (Example 3; PSG); format: in vivo, human; conditions: FIG. 9
Experimental: A randomized, double-blind, dose escalating study was carried out in one patient to determine optimum PYD dose range for treating OSA. The patient was administered to with 30, 60, 90 mg PYD bromide or a placebo before sleep, and was monitored by PSG throughout the night. AHI, AI, and total apnea/hypopnea time were lower in the nights administered with 30 or 60 mg PYD bromide compared with the night with 90 mg PYD bromide (FIG. 9). The number of low O2 saturation events was lower with 60 mg PYD bromide compared with that of 90 mg PYD bromide. The results obtained from the clinical study described in Example 2 were reexamined to compare the therapeutic responses in the windows of 2-5 hours and 5-7 hours after sleep. […] Since serum PYD concentrations are expected to be lower within 5-7 hours comparing with those within 2-5 hours, the optimum dose range may be less than 90 mg of PYD bromide in a single dose.

[4] = one patient, three treatment nights (30, 60, 120 mg), 2-7 hours after lights off
[5] = 0-2 hr, P value >0.05, listed as Drug
[6] = 0-2 hr, P value >0.05, listed as PYD bromide
[7] = 2-7 hr, P value >0.05, listed as Drug
[8] = 2-7 hr, P value >0.05, listed as PYD bromide

In the case of `CN(C)C(=O)Oc1ccc[n+](C)c1` [PYD, pyridostigmine], the serious adverse reactions ([1]; 30, 60, 120 mg oral, during the study) is reported as “No serious adverse reaction was reported”, the “serum drug concentrations at which patients particularly responded positively” value ([1]; 'particularly between') is reported as 3 to 60 ng/mL and the “AHI and events of low O2 saturation” value ([1]; one patient, 0-2 hours after lights off) is reported as “largely not changed”. For the same compound, the “AHI and low O2 saturation, dose response” value ([1]; one patient, 30-60 mg compared with 120 mg PYD bromide, FIG. 2) was “lower AHI and less low O2 saturation”, the “reduction of AHI compared with placebo” value [1, 4] was 11-23% and the “reduction of events of low blood O2 saturation compared with placebo” value [1, 4] was 10-18%. The “adverse reactions at the highest dose” value ([1]; patients treated with the highest dose) was “stomach upset and mild muscle cramp”, the “serum drug concentrations at which patients responded positively” value ([1]; positive responses: reduction of AHI, AI, apnea/hypopnea time, snoring, increase in minimum oxygen saturation) was 2 to 150 ng/mL and the “serum drug concentrations in one patient” value ([2]; one patient monitored by PSG all four nights, 30, 60, 120 mg oral, FIG. 2) was 3 to 45 ng/mL. The “time of peak serum drug concentration” value ([2]; oral PYD bromide 30, 60 or 120 mg before sleep, 12 OSA patients, FIG. 1) was 3 to 4 h, the elimination half-life [3] was “approximately 1.78 hours” and the “Apnea/Hypopnea Index (AHI)” value (diagnosed OSA patients; 0-2 hr after sleep) was 29.6. For the same compound, the “Apnea/Hypopnea Index (AHI)” value (diagnosed OSA patients; 2-7 hr after sleep) was 20.4, the “Apnea/Hypopnea Index (AHI) Reduction (%)” value (diagnosed OSA patients; 0-2 hr after sleep, P value >0.05, listed as Drug) was 13.1*** % and the “Apnea/Hypopnea Index (AHI) Reduction (%)” value (diagnosed OSA patients; 0-2 hr after sleep, P value >0.05, listed as PYD bromide) was “No statistically significant reduction”. For the same compound, the “Hypopnea Index (HI) Reduction (%)” value (diagnosed OSA patients; 0-2 hr, P value >0.05) was −17.7*** %, the “Apnea index (AI) Reduction (%)” value (diagnosed OSA patients; [5]) was 26.7*** % and the “Apnea/Hypopnea time Reduction (%)” value (diagnosed OSA patients; [5]) was 21.5*** %. For the same compound, the “Low Sat O2 Reduction (%)” value (diagnosed OSA patients; [5]) was 6.6*** %, the “Snore score Reduction (%)” value (diagnosed OSA patients; [5]) was 3.3*** % and the “Apnea index (AI) Reduction (%)” value (diagnosed OSA patients; [6]) was “No statistically significant reduction”. The “Apnea/Hypopnea time Reduction (%)” value (diagnosed OSA patients; [6]) was “No statistically significant reduction”, the “Low Sat O2 Reduction (%)” value (diagnosed OSA patients; [6]) was “No statistically significant reduction” and the “Snore score Reduction (%)” value (diagnosed OSA patients; [6]) was “No statistically significant reduction”. For the same compound, the “Apnea/Hypopnea Index (AHI) Reduction (%)” value (diagnosed OSA patients; 2-7 hr after sleep, P value <0.01 (0.0003), listed as Drug) was 28.0* %, the “Apnea/Hypopnea Index (AHI) Reduction (%)” value (diagnosed OSA patients; 2-7 hr after sleep, P value <0.01 (0.0003), listed as PYD bromide) was 28.0% and the “Apnea/Hypopnea time Reduction (%)” value (diagnosed OSA patients; 2-7 hr, 0.01 < P value < 0.05 (0.0133), listed as Drug) was 36.4** %. For the same compound, the “Apnea/Hypopnea time Reduction (%)” value (diagnosed OSA patients; 2-7 hr, 0.01 < P value < 0.05 (0.0133), listed as PYD bromide) was 36.4%, the “Apnea index (AI) Reduction (%)” value (diagnosed OSA patients; 2-7 hr, 0.01 < P value < 0.05 (0.0314), listed as Drug) was 37.3** % and the “Apnea index (AI) Reduction (%)” value (diagnosed OSA patients; 2-7 hr, 0.01 < P value < 0.05 (0.0314), listed as PYD bromide) was 37.3%. For the same compound, the “Snore score Reduction (%)” value (diagnosed OSA patients; 2-7 hr, P value <0.01 (0.0041), listed as Drug) was 18.8* %, the “Snore score Reduction (%)” value (diagnosed OSA patients; 2-7 hr, P value <0.01 (0.0041), listed as PYD bromide) was 18.8% and the “Hypopnea Index (HI) Reduction (%)” value (diagnosed OSA patients; [7]) was 10.3*** %. The “Low Sat O2 Reduction (%)” value (diagnosed OSA patients; [7]) was 12.5*** %, the “Hypopnea Index (HI) Reduction (%)” value (diagnosed OSA patients; [8]) was 10.3% and the “Low Sat O2 Reduction (%)” value (diagnosed OSA patients; [8]) was 12.5%. The “Low Sat O2 (events/hr)” value (diagnosed OSA patients; 90 mg, 0-2 hr after sleep) was 35.1 events/hr, the “Snore score (events/hr)” value (diagnosed OSA patients; 90 mg, 0-2 hr after sleep) was 528 events/hr and the “Apnea index (AI)” value (diagnosed OSA patients; 90 mg, 0-2 hr after sleep) was 16.9. For the same compound, the “Hypopnea Index (HI)” value (diagnosed OSA patients; 90 mg, 0-2 hr after sleep) was 12.0, the “Apnea/Hypopnea time (%)” value (diagnosed OSA patients; 90 mg, 0-2 hr) was 18.7% and the “Low Sat O2 (events/hr)” value (diagnosed OSA patients; 90 mg, 2-7 hr after sleep) was 24.9 events/hr. For the same compound, the “Snore score (events/hr)” value (diagnosed OSA patients; 90 mg, 2-7 hr after sleep) was 485 events/hr, the “Apnea index (AI)” value (diagnosed OSA patients; 90 mg, 2-7 hr after sleep) was 11.7 and the “Hypopnea Index (HI)” value (diagnosed OSA patients; 90 mg, 2-7 hr after sleep) was 8.7. The “Apnea/Hypopnea time (%)” value (diagnosed OSA patients; 90 mg, 2-7 hr) was 14.5%, the “PSG scores (AHI, AI, total apnea/hypopnea time, low O2 saturation events)” value (diagnosed OSA patients; 90 mg, 5-7 hours compared with 2-5 hours after sleep, FIG. 10) was “statistically significantly lower” and the “daytime quality of life reported by patients” value (diagnosed OSA patients; daytime following the drug treatment night) was “more energy, be more concentrated and be less sleepy”. The “tolerability / serious adverse reactions” value (diagnosed OSA patients; single dose 90 mg PYD bromide) was “well tolerated; also recorded: no serious adverse reaction was reported”, the adverse reactions found (diagnosed OSA patients; single dose 90 mg, one patient) was “minor stomach upset” and the “longer total sleep time in the treatment night (average)” value (diagnosed OSA patients; three patients, treatment night vs placebo night, FIG. 8) was 33 min. For the same compound, the noise of snoring (diagnosed OSA patients; treatment night compared with placebo night) was “quieter”, the “sleep quality, patients' self evaluation questionnaire” value (diagnosed OSA patients; treatment night vs placebo night, FIG. 8) was “better sleep, more clear-headed, more energetic, and more satisfied sleep” and the “number of low O2 saturation events” value (OSA patient; 60 mg compared with 90 mg PYD bromide) was “lower”. The “AHI, AI, and total apnea/hypopnea time” value (OSA patient; nights with 30 or 60 mg compared with the night with 90 mg PYD bromide) was “lower”.
